Reference: patent US6608176B2, “Taste receptor for umami (monosodium glutamate) taste” (University of Miami, priority 2000, dated 2003)
Where two headings read alike, the source gives them in different places.

Experiments:
[1] = system: glossopharyngeal nerve / sensory afferents; settings: cited from earlier work
brain-mGluR4 [2] = biological target: T1, brain-mGluR4 (Rattus norvegicus, UniProt P31423); assay: Suppression of forskolin-stimulated cAMP in CHO cells stably expressing brain-mGluR4; type: cell-based
T1 construct: Full-length cDNAs for brain-mGluR4 and taste-mGluR4 were reconstructed; expressed in transfected cells
T1 sequence (P31423 33-912): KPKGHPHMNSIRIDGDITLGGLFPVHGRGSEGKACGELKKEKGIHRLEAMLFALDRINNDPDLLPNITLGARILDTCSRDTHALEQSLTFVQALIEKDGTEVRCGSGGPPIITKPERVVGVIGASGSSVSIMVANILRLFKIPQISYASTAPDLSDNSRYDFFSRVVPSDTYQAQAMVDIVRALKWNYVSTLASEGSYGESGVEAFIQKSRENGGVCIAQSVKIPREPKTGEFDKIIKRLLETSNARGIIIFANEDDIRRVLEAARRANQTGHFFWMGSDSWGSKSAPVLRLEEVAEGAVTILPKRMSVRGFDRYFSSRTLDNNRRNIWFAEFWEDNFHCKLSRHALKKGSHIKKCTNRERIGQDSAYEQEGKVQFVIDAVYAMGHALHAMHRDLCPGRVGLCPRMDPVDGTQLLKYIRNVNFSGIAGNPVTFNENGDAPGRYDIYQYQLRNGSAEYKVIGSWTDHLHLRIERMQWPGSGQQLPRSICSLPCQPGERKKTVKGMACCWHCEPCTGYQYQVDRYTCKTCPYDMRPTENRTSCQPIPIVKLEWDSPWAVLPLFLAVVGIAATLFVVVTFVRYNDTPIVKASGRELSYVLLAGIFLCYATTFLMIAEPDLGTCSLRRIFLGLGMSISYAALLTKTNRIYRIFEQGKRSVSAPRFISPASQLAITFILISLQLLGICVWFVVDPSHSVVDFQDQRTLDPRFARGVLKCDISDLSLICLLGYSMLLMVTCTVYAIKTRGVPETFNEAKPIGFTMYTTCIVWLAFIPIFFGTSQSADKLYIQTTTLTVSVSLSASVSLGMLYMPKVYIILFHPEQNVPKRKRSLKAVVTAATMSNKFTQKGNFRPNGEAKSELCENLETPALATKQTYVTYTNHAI
Experimental: (§1) CHO cells were transfected with brain-mGluR4 and taste-mGluR4 constructs and with non-recombinant pcDNA3.1 vector, all in parallel, using a cationic lipid, DMRIE-C (Gibco-BRL). Cells with stably integrated plasmid were selected and maintained in 300 μg per ml G418 starting 24 h after transfection. The medium consisted of Dulbecco's Modified Eagle Medium (D-MEM) supplemented with 10% fetal bovine serum, 2 mM glutamine, 1.7 mM proline and 100 units per ml penicillin-streptomycin^35. Clones were lifted within two weeks and screened for expression by western blot analysis. A single clone for each form was propagated for functional assays. Stably transfected but non-clonal lines of cells from independent transfections with both forms of mGluR4 and non-recombinant vector were also maintained and used in functional assays.
(§2) CHO cells, stably transfected with brain-mGluR4, taste-mGluR4 or non-recombinant pcDNA3.1, were maintained as sub-confluent cultures and refed every two days to minimize chronic stimulation of expressed receptors by glutamate released from dead cells. Cells were plated 20 h before assay in a 96-well microtiter plate at 2×10^4 cells per 200 μl well. Fresh medium was replaced for one hour immediately before assaying receptor function as described^35. Briefly, cells were incubated in Dulbecco's phosphate buffered saline containing 1 mM IBMX for 20 min followed by stimulation for 10 min in 10 μM forskolin and 1 mM IBMX, with or without agonists. Stimulation buffer was rapidly removed, and cells were lysed in 200 μl 0.25% dodecyltrimethyl-ammonium bromide in 50 mM acetate buffer (Amersham, Piscataway, N.J.). Released cAMP in 20% of each lysate was assayed directly using an Amersham EIA-based kit and plotted as mean±s.e. of 3-6 experiments, each performed with triplicate wells of cells.
(§3) In transfected CHO cells, activation of group III mGluRs leads to a suppression of forskolin-stimulated cAMP synthesis^35. […] Thus, two separate lines of CHO cells expressing taste-mGluR4 were examined.

taste-mGluR4 = biological target: T2, taste-mGluR4 (Rattus norvegicus, UniProt P31423); assay: Suppression of forskolin-stimulated cAMP in CHO cells stably expressing taste-mGluR4; type: cell-based
T2 construct: expressed in transfected cells
T2 sequence (P31423 309-912): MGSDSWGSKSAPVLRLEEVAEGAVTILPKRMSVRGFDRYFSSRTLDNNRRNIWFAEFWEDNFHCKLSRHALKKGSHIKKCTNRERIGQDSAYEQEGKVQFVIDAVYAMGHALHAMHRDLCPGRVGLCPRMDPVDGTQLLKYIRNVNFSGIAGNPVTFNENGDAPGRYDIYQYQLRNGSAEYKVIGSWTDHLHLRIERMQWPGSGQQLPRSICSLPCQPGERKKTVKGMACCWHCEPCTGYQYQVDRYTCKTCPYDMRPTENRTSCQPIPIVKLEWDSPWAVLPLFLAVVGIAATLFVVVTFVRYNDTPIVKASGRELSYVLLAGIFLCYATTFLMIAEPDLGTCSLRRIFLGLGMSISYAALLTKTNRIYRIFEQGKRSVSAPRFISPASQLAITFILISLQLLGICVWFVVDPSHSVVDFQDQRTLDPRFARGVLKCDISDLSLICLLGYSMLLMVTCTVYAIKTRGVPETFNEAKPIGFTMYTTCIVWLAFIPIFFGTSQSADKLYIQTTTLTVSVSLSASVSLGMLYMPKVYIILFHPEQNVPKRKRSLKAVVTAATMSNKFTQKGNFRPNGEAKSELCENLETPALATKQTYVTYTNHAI
Experimental: as §1, §2, §3

[3] = system: CHO cells transfected with non-recombinant pcDNA3.1 vector; assay: cAMP level in control CHO cells transfected with non-recombinant vector; type: cell-based, Chinese hamster; settings: for cAMP level relative to controls: n=9; for change of cAMP concentration in control cells: non-recombinant vector
Experimental: as §1, §2

brain-mGluR4 [4] = biological target: T1, brain-mGluR4; settings: cited from earlier work
chorda tympani nerve = chorda tympani nerve recordings; cited from earlier work
MSG taste detection = settings: rats, behavioral assays; cited from earlier work

Compound: N[C@@H](CCC(=O)O)C(=O)[O-].[Na+] [L-MSG, monosodium L-glutamate]
- detection threshold in recordings from sensory afferents ([1]; adult rodents): 1 to 3 mM
- detection threshold in recordings from sensory afferents ([1]; juvenile rodents): 0.1 to 0.3 mM

Compound: N[C@@H](CCC(=O)O)C(=O)O [L-glutamate]
- EC50 (brain-mGluR4 [2]; CHO cells stably expressing brain-mGluR4, 10 μM forskolin, 1 mM IBMX): 2 µM
- threshold concentration for activating taste-mGluR4 (taste-mGluR4; CHO cells expressing taste-mGluR4): 30 µM
- EC50 (taste-mGluR4; CHO cells expressing taste-mGluR4, 10 μM forskolin, 1 mM IBMX, read-out: EC50 for L-glutamate for taste-mGluR4): 280 µM
- concentration needed for taste mGluR4 relative to brain-derived neurotransmitter mGluR4 (taste-mGluR4; CHO cells, taste vs brain mGluR4): about 100 fold
- cAMP response (taste-mGluR4; at concentrations of 30 μM or below): no response
- EC50 (taste-mGluR4; line with expression 2-fold lower than parallel brain-mGluR4 line, read-out: EC50, taste-mGluR4 CHO line): 250 µM
- EC50 (taste-mGluR4; line with expression 100-fold lower than parallel brain-mGluR4 line, read-out: EC50, taste-mGluR4 CHO line): 300 µM
- cAMP level relative to controls ([3]; 1 mM): 127±16%
- cAMP level relative to controls ([3]; 10 mM): 132±19%
- EC50 (brain-mGluR4 [4]; mGluR4a, literature ref 35, read-out: EC50 on mGluR4a, earlier reports): 5 µM
- taste nerve threshold ([1]; adult mice and rats): 2 to 10 mM
- threshold for glutamate taste responses in the glossopharyngeal nerve ([1]; juvenile mice): 100 µM

Compound: C[C@](N)(CCP(=O)(O)O)C(=O)O [MAP4]
- block of taste nerve responses to glutamate and L-AP4 (chorda tympani nerve): fails to block

Compound: NC(CCP(=O)(O)O)C(=O)O [L-AP4]
- concentration above which the cAMP response saturates (brain-mGluR4 [2]; brain-mGluR4 CHO cells, FIG. 4): above 10 μM
- cAMP response (taste-mGluR4; 10 μM L-AP4): no response
- cAMP response (taste-mGluR4; 100 μM and 1 mM L-AP4): progressively larger responses
- change of cAMP concentration in control cells [3]: did not change
- EC50 (brain-mGluR4 [4]; brain mGluR4, literature ref 35, read-out: published EC50): 0.5 to 1 µM
- concentration near the MSG taste detection threshold (MSG taste detection): ~100 µM

Compound: N[C@H](CCC(=O)O)C(=O)O [D-glutamate]
- cAMP level relative to controls (brain-mGluR4 [2]; 1 MM D-glutamate, brain-mGluR4 cells): 126±17%
- cAMP level relative to controls (taste-mGluR4; 1 MM D-glutamate, taste-mGluR4 cells): 99±3%
- change of cAMP concentration in control cells [3]: did not alter cAMP concentrations
